Columns and labels:
[1] = target: Metabotropic glutamate receptor 5 (Rattus norvegicus, UniProt P31424); experiment: Antagonist activity at rat mGluR5 expressed in human HEK293A cells assessed as inhibition of glutamate-induced calcium flux; format: functional, cell-based, HEK293-A
[2] = target: Metabotropic glutamate receptor 5 (Rattus norvegicus) (UniProt P31424); experiment: Antagonist activity at rat mGluR5 expressed in human HEK293A cells assessed as inhibition of glutamate-induced calcium flux relative to glutamate; format: functional, cell-based; conditions: HEK293-A
Metabotropic glutamate receptor 5 (Rattus norvegicus), sequence (P31424 21-1203 limits assumed): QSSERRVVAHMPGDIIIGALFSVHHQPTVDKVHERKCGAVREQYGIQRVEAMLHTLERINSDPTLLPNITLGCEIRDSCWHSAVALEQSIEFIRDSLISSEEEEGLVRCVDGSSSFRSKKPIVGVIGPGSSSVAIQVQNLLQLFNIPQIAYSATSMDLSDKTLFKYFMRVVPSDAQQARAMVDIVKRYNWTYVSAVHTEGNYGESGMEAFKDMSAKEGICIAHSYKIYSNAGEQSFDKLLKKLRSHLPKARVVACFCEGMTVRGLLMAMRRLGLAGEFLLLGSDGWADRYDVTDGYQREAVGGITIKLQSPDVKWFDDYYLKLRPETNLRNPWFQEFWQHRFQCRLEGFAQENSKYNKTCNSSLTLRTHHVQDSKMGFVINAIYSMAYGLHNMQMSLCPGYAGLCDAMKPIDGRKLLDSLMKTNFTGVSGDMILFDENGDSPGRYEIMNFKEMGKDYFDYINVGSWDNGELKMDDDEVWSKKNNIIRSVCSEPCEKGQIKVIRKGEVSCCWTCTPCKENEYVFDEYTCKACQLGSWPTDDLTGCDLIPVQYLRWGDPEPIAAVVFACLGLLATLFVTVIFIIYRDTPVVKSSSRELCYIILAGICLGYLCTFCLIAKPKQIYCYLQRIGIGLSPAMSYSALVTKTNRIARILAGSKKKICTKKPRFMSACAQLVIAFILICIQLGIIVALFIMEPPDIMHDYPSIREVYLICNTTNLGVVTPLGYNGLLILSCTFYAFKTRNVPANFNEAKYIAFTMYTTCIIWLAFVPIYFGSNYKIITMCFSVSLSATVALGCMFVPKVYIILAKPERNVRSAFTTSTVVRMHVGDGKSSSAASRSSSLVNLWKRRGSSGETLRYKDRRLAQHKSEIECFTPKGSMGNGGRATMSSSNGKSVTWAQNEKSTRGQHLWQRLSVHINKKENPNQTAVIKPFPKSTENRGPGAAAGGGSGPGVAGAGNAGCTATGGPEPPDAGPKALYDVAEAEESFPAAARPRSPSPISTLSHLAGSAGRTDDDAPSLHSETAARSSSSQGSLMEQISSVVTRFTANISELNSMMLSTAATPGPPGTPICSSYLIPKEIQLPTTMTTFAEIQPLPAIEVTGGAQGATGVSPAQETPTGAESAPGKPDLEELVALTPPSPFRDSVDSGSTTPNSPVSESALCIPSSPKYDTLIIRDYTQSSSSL

[3] = target: Metabotropic glutamate receptor 5 (Homo sapiens, UniProt P41594); experiment: Antagonist activity at mGluR5; format: functional
Metabotropic glutamate receptor 5 (Homo sapiens, UniProt P41594), sequence (P41594 whole entry): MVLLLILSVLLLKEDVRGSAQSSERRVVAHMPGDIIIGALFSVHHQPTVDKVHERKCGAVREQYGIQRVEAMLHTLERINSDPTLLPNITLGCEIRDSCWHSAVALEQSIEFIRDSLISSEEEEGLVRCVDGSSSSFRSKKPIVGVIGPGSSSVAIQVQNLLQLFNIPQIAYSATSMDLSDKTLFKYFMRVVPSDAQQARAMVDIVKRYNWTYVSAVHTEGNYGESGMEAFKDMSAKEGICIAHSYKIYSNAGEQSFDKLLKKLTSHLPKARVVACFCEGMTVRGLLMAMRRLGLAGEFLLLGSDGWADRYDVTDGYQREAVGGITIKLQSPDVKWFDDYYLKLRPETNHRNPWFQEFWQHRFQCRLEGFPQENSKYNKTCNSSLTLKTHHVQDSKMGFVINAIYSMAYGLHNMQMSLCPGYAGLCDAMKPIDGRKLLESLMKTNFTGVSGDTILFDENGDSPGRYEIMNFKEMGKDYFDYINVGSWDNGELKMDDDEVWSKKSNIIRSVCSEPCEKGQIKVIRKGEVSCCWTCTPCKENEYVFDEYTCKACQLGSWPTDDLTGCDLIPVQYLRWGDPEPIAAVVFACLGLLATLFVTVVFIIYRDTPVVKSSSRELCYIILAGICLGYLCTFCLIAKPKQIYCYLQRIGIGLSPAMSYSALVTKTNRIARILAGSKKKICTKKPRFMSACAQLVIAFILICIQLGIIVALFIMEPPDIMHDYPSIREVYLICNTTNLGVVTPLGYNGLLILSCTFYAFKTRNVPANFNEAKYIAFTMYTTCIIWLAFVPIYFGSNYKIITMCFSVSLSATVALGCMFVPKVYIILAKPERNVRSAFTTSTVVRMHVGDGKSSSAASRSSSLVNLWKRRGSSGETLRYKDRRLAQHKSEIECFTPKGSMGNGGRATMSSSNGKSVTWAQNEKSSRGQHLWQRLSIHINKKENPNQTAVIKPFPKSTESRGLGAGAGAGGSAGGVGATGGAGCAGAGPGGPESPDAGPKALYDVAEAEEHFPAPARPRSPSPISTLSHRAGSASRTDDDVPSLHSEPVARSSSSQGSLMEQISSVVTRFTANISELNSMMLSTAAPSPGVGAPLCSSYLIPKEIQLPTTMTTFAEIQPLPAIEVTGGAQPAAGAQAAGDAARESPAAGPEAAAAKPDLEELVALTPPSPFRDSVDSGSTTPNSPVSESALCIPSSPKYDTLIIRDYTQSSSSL

Metabotropic glutamate receptor 5 (Rattus norvegicus, UniProt P31424), sequence (P31424 whole entry): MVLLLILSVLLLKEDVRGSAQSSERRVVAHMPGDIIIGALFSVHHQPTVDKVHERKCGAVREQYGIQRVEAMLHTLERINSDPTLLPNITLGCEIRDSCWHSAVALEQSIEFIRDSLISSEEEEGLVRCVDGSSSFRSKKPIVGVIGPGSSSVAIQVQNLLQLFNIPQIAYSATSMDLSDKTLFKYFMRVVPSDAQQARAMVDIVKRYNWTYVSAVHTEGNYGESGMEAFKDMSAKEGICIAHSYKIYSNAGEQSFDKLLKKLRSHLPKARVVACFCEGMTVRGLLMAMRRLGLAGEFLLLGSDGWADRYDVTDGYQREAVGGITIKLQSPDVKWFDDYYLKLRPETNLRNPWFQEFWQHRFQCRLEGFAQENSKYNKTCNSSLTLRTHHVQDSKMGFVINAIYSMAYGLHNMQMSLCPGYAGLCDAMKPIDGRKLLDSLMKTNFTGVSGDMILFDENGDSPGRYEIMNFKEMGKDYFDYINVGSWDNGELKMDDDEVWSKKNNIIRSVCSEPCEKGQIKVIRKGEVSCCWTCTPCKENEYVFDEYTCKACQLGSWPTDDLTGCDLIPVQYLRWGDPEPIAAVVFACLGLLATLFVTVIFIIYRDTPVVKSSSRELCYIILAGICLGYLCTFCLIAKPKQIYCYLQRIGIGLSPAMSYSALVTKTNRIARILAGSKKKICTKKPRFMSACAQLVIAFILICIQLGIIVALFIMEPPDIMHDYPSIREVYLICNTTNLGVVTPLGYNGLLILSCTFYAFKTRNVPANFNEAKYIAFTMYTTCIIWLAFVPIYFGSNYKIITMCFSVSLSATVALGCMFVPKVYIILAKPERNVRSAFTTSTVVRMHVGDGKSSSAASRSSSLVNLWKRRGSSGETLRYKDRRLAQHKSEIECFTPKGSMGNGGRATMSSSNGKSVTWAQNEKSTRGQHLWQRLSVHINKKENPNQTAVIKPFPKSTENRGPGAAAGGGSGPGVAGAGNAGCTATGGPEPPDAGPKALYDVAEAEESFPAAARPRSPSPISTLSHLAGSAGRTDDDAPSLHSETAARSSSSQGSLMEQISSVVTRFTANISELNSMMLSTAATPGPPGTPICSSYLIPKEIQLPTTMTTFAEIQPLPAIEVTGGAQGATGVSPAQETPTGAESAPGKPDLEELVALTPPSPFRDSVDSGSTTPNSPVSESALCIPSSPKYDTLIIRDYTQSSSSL

| SMILES | IC50 [1] | % Glu Max [2] | IC50 [3] |
| --- | --- | --- | --- |
| COc1ccccc1C(=O)Nc1cccc(NC(=O)C2CCCCC2)c1 | > 30 µM |  |  |
| O=C(Nc1cccc(NC(=O)C23CC4CC(CC(C4)C2)C3)c1)c1cccc(Cl)c1 | > 30 µM |  |  |
| CC(=O)Nc1cccc(NC(=O)c2cccc(Cl)c2)c1 | 7.97 µM | 39.6% |  |
| COc1ccccc1C(=O)Nc1cccc(NC(=O)c2ccc(Cl)cc2)c1 | > 30 µM |  |  |
| O=C(Nc1cccc(NC(=O)C2CCC2)c1)c1cccc(Cl)c1 | 5.27 µM | 44% |  |
| Cc1cccc(C(=O)Nc2cccc(NC(=O)c3cccc(Cl)c3)c2)c1 | > 30 µM |  |  |
| COc1ccccc1C(=O)Nc1cccc(NC(=O)c2ccc3c(c2)OCO3)c1 | > 30 µM |  |  |
| O=C(Nc1cccc(NC(=O)C2CCCC2)c1)c1cccc(Cl)c1 | > 30 µM |  |  |
| COc1ccccc1C(=O)Nc1cccc(NC(=O)C2CC2c2ccccc2)c1 (stereo not drawn) | > 30 µM |  |  |
| COc1ccccc1C(=O)Nc1cccc(NC(=O)c2cc(Cl)cc(Cl)c2)c1 | > 30 µM |  |  |
| O=C(Nc1cccc(O)c1)c1cccc(N2C(=O)c3ccccc3C2=O)c1 | 7.79 µM | 48.1% |  |
| COc1ccccc1C(=O)Nc1cccc(NC(=O)c2cccc(C)c2)c1 | 1.35 µM | 3.82% |  |
| O=C(Nc1cccc(NC(=O)c2cccc(C(F)(F)F)c2)c1)c1cccc(Cl)c1 | > 30 µM |  |  |
| O=C(Nc1ccccc1F)c1cccc(N2C(=O)c3ccccc3C2=O)c1 | 1.05 µM | 49.9% |  |
| COc1ccccc1C(=O)Nc1cccc(NC(=O)Cc2ccccc2)c1 | > 30 µM |  |  |
| COc1ccccc1C(=O)Nc1cccc(NC(=O)c2ccco2)c1 | > 30 µM |  |  |
| COc1ccccc1C(=O)Nc1cccc(NC(=O)c2cccc(F)c2)c1 | 6.48 µM | 25.8% |  |
| COc1ccccc1NC(=O)c1cccc(N2C(=O)c3ccccc3C2=O)c1 | > 30 µM | 86% |  |
| O=C(Nc1ccc(F)cc1)c1cccc(N2C(=O)c3ccccc3C2=O)c1 | > 30 µM | 73% |  |
| COc1ccccc1C(=O)Nc1cccc(NC(=O)C2CC2)c1 | > 30 µM |  |  |
| O=C(Nc1cccc(NC(=O)c2ccco2)c1)c1cccc(Cl)c1 | 4.51 µM | 49.3% |  |
| O=C(Nc1cccc(NC(=O)c2ccccc2Cl)c1)c1cccc(Cl)c1 | 2.62 µM | 8.78% |  |
| O=C(Nc1cccc(NC(=O)C2CC2c2ccccc2)c1)c1cccc(Cl)c1 (stereo not drawn) | > 30 µM |  |  |
| COc1ccccc1C(=O)Nc1cccc(NC(=O)C(C)C)c1 | > 30 µM |  |  |
| COc1ccccc1C(=O)Nc1cccc(NC(=O)c2ccc(Cl)c(Cl)c2)c1 | > 30 µM |  |  |
| CC(C)C(=O)Nc1cccc(NC(=O)c2cccc(Cl)c2)c1 | 5.82 µM | 26.9% |  |

| SMILES | IC50 [1] | % Glu Max [2] | IC50 [3] |
| --- | --- | --- | --- |
| O=C(Nc1cccc(Cl)c1)c1cccc(N2C(=O)c3ccccc3C2=O)c1 | 1.78 µM | 26.4% |  |
| COc1ccccc1C(=O)Nc1cccc(NC(=O)c2cccc(C#N)c2)c1 | 1.8 µM | 3.22% |  |
| COc1ccccc1C(=O)Nc1cccc(NC(=O)c2ccccc2Cl)c1 | > 30 µM |  |  |
| O=C(Nc1cccc(NC(=O)c2cccc(Cl)c2)c1)c1cccc(F)c1 | > 30 µM |  |  |
| O=C(Nc1cccc(NC(=O)c2ccc3c(c2)OCO3)c1)c1cccc(Cl)c1 | > 30 µM |  |  |
| COc1cc(NC(=O)c2cccc(N3C(=O)c4ccccc4C3=O)c2)cc(OC)c1 | 3.58 µM | 76.2% |  |
| COc1ccccc1C(=O)Nc1cccc(NC(=O)C2CCCC2)c1 | > 30 µM |  |  |
| COc1ccccc1C(=O)Nc1cccc(NC(=O)C2CCC2)c1 | > 30 µM |  |  |
| COc1ccccc1C(=O)Nc1cccc(NC(=O)c2cccc(Cl)c2)c1 | 0.88 µM | 2.6% | 1.1 µM |
| O=C(Cc1ccccc1)Nc1cccc(NC(=O)c2cccc(Cl)c2)c1 | > 30 µM |  |  |
| O=C(Nc1cccc(NC(=O)c2ccc(Cl)c(Cl)c2)c1)c1cccc(Cl)c1 | > 30 µM |  |  |
| O=C(Nc1cccnc1)c1cccc(N2C(=O)c3ccccc3C2=O)c1 | > 30 µM | 86% |  |
| COCC(=O)Nc1cccc(NC(=O)c2cccc(Cl)c2)c1 | > 30 µM |  |  |
| O=C(Nc1cccc(NC(=O)c2cccc(Cl)c2)c1)c1cccc(Cl)c1 | > 30 µM |  |  |
| COc1ccccc1C(=O)Nc1cccc(NC(=O)c2cccc(C(F)(F)F)c2)c1 | 10.6 µM | 26.1% |  |
| COc1ccccc1C(=O)Nc1cccc(NC(=O)c2ccc(F)cc2)c1 | > 30 µM |  |  |
| COc1ccccc1C(=O)Nc1cccc(NC(=O)C23CC4CC(CC(C4)C2)C3)c1 | > 30 µM |  |  |
| O=C(NC1CC2CCC1C2)c1cccc(N2C(=O)c3ccccc3C2=O)c1 (stereo not drawn) | > 30 µM | 71% |  |
| COCC(=O)Nc1cccc(NC(=O)c2ccccc2OC)c1 | > 30 µM |  |  |
| COc1ccccc1C(=O)Nc1cccc(NC(C)=O)c1 | > 30 µM |  |  |
| O=C(Nc1cccc(NC(=O)C2CC2)c1)c1cccc(Cl)c1 | 2.23 µM | 32.3% |  |
| O=C(Nc1cccc(NC(=O)c2cccc(Cl)c2)c1)c1ccc(Cl)cc1 | > 30 µM |  |  |
| O=C(Nc1cccc(NC(=O)c2cccc(Cl)c2)c1)c1ccc(F)cc1 | > 30 µM |  |  |
| O=C(NC1CC1)c1cccc(N2C(=O)c3ccccc3C2=O)c1 | > 30 µM | 68% |  |
| O=C(Nc1ccccn1)c1cccc(N2C(=O)c3ccccc3C2=O)c1 | 1.26 µM | 59.5% |  |

— ChEMBL document CHEMBL1153700, “Synthesis and SAR of novel, non-MPEP chemotype mGluR5 NAMs identified by functional HTS” (Bioorg Med Chem Lett, 2009)
